Reference: patent publication US8309721B2, “HSP90 inhibitory carbazole derivatives, compositions containing same and use thereof” (Sanofi, priority 2008, dated 2012)

Experiments:
Hsp82 = Hsp82 (Saccharomyces cerevisiae, UniProt P02829); test: Hsp82/ATPase test (malachite green or PK/LDH coupled method); format: biochemical; conditions: 1 μM Hsp82, 250 μM ATP, 37° C.; read-out: Hsp82 ATPase IC50
Description: The biochemical activity of the compounds can in particular be evaluated by means of the “Hsp82/ATPase” test described below: The inorganic phosphate released during the hydrolysis of ATP by the ATPase activity of Hsp82 is quantified by the malachite green method. In the presence of this reagent, formation of the inorganic phosphate-molybdate-malachite green complex, which absorbs at a wavelength of 620 nm, occurs. The products to be evaluated are incubated in a reaction volume of 30 μl, in the presence of 1 μM Hsp82 and of 250 μM of substrate (ATP) in a buffer composed of 50 mM Hepes-NaOH (pH 7.5), 1 mM DTT, 5 mM MgCl2 and 50 mM KCl at 37° C. for 60 min. In parallel, an inorganic phosphate range of between 1 and 40 μM is made up in the same buffer. […] After incubation at ambient temperature for 20 min, the absorbance of the various wells is measured using a microplate reader at 620 nm. The inorganic phosphate concentration of each sample is then calculated from the standard curve. The ATPase activity of Hsp82 is expressed as concentration of inorganic phosphate produced in 60 minutes. The effect of the various products tested is expressed as percentage inhibition of the ATPase activity. The formation of ADP due to the ATPase activity of Hsp82 was used to develop another method for evaluating the enzyme activity of this enzyme by application of an enzymatic coupling system involving pyruvate kinase (PK) and lactate dehydrogenase (LDH). In this kinetic-type spectrophotometric method, PK catalyses the formation of ATP and of pyruvate from phosphoenol pyruvate (PEP) and the ADP produced by Hsp82. The pyruvate formed, which is a substrate for LDH, is subsequently converted to lactate in the presence of NADH. In this case, the decrease in the NADH concentration, measured through the decrease in absorbance at the wavelength of 340 nm, is proportional to the concentration of ADP produced by Hsp82. The products tested are incubated in a reaction volume of 100 μl of buffer composed of 100 mM Hepes-NaOH (pH 7.5), 5 mM MgCl2, 1 mM DTT, 150 mM KCl, 0.3 mM NADH, 2.5 mM PEP and 250 μM ATP. This mixture is preincubated at 37° C. for 30 minutes before the addition of 3.77 units of LDH and 3.77 units of PK. The reaction is initiated by addition of the product to be evaluated, in varying concentrations, and of Hsp82, at the concentration of 1 μM. The enzymatic activity of Hsp82 is then measured continuously, in a microplate reader, at 37° C., at the wavelength of 340 nm. The initial rate of the reaction is obtained by measuring the slope of the tangent to the origin of the curve recorded. The enzymatic activity is expressed in μM of ADP formed per minute. The effect of the various products tested is expressed as percentage inhibition of the ATPase activity according to the codification below: […]

[1] = test system: Her2 receptor expression at the surface of SKBr3 cells; test: phenotypic SKBr3/HER2 cell test (Her2 surface expression by flow cytometry); format: cell-based; conditions: Homo sapiens, SK-BR-3, 24 h incubation, inhibition of Her2 expression
In short: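 SKBr3 cells (Her2-overexpressing adenocarcinoma) treated 24 h with compound at varying concentrations, then stained with PE-anti-Her2 antibody 30 min at 4° C; surface Her2 measured by flow cytometry. IC50 from nonlinear fit of % inhibition of Her2 expression versus concentration.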

Hsp82, sequence (P02829 whole entry): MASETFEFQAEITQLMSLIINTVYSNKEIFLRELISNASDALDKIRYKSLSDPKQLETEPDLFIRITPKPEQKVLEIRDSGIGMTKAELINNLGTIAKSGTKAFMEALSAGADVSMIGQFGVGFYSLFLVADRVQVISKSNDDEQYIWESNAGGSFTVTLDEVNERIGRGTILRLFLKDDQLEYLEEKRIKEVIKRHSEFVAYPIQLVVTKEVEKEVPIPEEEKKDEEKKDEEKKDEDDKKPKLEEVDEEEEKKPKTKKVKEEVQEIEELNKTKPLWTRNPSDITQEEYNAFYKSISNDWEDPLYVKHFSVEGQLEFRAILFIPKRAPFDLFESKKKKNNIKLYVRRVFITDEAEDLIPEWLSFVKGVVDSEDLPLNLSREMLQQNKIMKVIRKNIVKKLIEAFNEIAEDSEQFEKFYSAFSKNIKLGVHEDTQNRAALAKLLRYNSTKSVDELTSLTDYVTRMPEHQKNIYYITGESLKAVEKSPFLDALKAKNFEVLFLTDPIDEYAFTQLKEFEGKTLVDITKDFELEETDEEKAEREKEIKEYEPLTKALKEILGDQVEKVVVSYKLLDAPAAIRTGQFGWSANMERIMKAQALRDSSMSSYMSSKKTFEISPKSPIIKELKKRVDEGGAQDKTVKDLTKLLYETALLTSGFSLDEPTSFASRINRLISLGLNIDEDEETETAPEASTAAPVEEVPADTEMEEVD

Work on `CC(C)(C)OC(=O)CC(=O)O[C@H]1CC[C@H](Nc2cc(-n3c4ccccc4c4c(-c5nc6ccc(F)cc6[nH]5)cccc43)ccc2C(N)=O)CC1` [Example 15, tert-butyl and 4-{2-carbamoyl-5-[4-(6-fluoro-1H-benzimidazol-2-yl)-9H-carbazol-9-yl]phenylamino}cyclohexyl ester of malonic acid] yielded an IC50 (Hsp82) of 1000 to 10000 nM and an IC50 [1] of less than 1000 nM.

Work on `CC(C)(C)OC(=O)NCCC(=O)O[C@H]1CC[C@H](Nc2cc(-n3c4ccccc4c4c(-c5nc6ccc(F)cc6[nH]5)cccc43)ccc2C(N)=O)CC1` [Example 23, 3-tert-butoxycarbonylaminopropionic acid 4-trans-{2-carbamoyl-5-[4-(6-fluoro-1H-benzimidazol-2-yl)-9H-carbazol-9-yl]phenylamino}cyclohexyl ester] yielded an IC50 (Hsp82) of 1000 to 10000 nM and an IC50 [1] of less than 1000 nM.

`NC(=O)c1ccc(-n2c3ccccc3c3c(-c4cnc5ccccc5c4)cccc32)cc1` [Example 30, 4-[4-(quinolin-3-yl)-9H-carbazol-9-yl]benzamide] gave an IC50 (Hsp82) of 1000 to 10000 nM and an IC50 [1] of 1000 to 10000 nM.

In the case of `NC(=O)c1ccc(-n2c3ccccc3c3c(-c4cnc5ccccc5c4)cccc32)cc1NCC[N+]1([O-])CCCC1` [Example 45, 2-[2-(1-oxypyrrolidin-1-yl)ethylamino]-4-[4-(quinolin-3-yl)-9H-carbazol-9-yl]benzamide], the IC50 (Hsp82) is reported as less than 1000 nM and the IC50 [1] is reported as less than 1000 nM.

`NC(=O)c1ccc(-n2c3ccccc3c3c(-c4nc5ccc(F)cc5[nH]4)cccc32)cc1NCCOCCO` [Example 7, 4-[4-(6-fluoro-1H-benzimidazol-2-yl)-9H-carbazol-9-yl]-2-[2-(2-hydroxyethoxy)ethylamino]benzamide] gave an IC50 (Hsp82) of less than 1000 nM and an IC50 [1] of less than 1000 nM.

`CN1CCC(O)(CCNc2cc(-n3c4ccccc4c4c(-c5cnc6ccccc6c5)cccc43)ccc2C(N)=O)CC1` [Example 65, 2-[2-(4-hydroxy-1-methylpiperidin-4-yl)ethylamino]-4-[4-(quinolin-3-yl)-9H-carbazol-9-yl]benzamide] gave an IC50 (Hsp82) of less than 1000 nM and an IC50 [1] of less than 1000 nM.

`CCN(CC)CCNc1cc(-n2c3ccccc3c3c(-c4nc5ccc(F)cc5[nH]4)cccc32)ccc1C(N)=O` [Example 3, 2-(2-diethylaminoethylamino)-4-[4-(6-fluoro-1H-benzimidazol-2-yl)-9H-carbazol-9-yl]benzamide] gave an IC50 (Hsp82) of less than 1000 nM and an IC50 [1] of less than 1000 nM.

`COCCCNc1cc(-n2c3ccccc3c3c(-c4nc5ccc(F)cc5[nH]4)cccc32)ccc1C(N)=O` [Example 38, 4-[4-(6-fluoro-1H-benzimidazol-2-yl)-9H-carbazol-9-yl]-2-(3-methoxypropylamino)benzamide] showed an IC50 (Hsp82) of less than 1000 nM and an IC50 [1] of less than 1000 nM.

`CN(C)CCNc1cc(-n2c3ccccc3c3c(-c4nc5ccc(F)cc5[nH]4)cccc32)ccc1C(N)=O` [Example 43, 2-(2-dimethylaminoethylamino)-4-[4-(6-fluoro-1H-benzimidazol-2-yl)-9H-carbazol-9-yl]benzamide] showed an IC50 (Hsp82) of less than 1000 nM and an IC50 [1] of less than 1000 nM.

`NC(=O)c1ccc(-n2c3ccccc3c3c(-c4nc5ccc(F)cc5[nH]4)cccc32)cc1NCc1ccn[nH]1` [Example 51, 4-[4-(6-fluoro-1H-benzimidazol-2-yl)-9H-carbazol-9-yl]-2-[(2H-pyrazol-3-ylmethyl)amino]benzamide] showed an IC50 (Hsp82) of 1000 to 10000 nM and an IC50 [1] of less than 1000 nM.

`CC(C)(C)OC(=O)NCC(=O)O[C@H]1CC[C@H](Nc2cc(-n3c4ccccc4c4c(-c5nc6ccc(F)cc6[nH]5)cccc43)ccc2C(N)=O)CC1` [Example 21, tert-butoxycarbonylaminoacetic acid 4-trans-{2-carbamoyl-5-[4-(6-fluoro-1H-benzimidazol-2-yl)-9H-carbazol-9-yl]phenylamino}cyclohexyl ester] showed an IC50 (Hsp82) of 1000 to 10000 nM and an IC50 [1] of less than 1000 nM.

`Nc1nn(CCO)c2cc(-n3c4ccccc4c4c(-c5nc6ccc(F)cc6[nH]5)cccc43)ccc12` [Example 16, 2-{3-amino-6-[4-(6-fluoro-1H-benzimidazol-2-yl)-9H-carbazol-9-yl]indazol-1-yl}ethanol] showed an IC50 (Hsp82) of 1000 to 10000 nM and an IC50 [1] of 1000 to 10000 nM.

`NC(=O)CCNc1cc(-n2c3ccccc3c3c(-c4nc5ccc(F)cc5[nH]4)cccc32)ccc1C(N)=O` [Example 47, 2-(2-carbamoylethylamino)-4-[4-(6-fluoro-1H-benzimidazol-2-yl)-9H-carbazol-9-yl]benzamide] was tested, and the IC50 (Hsp82) was less than 1000 nM and the IC50 [1] was less than 1000 nM.

In the case of `NC(=O)CCNc1cc(-n2c3ccccc3c3c(-c4cnc5ccccc5c4)cccc32)ccc1C(N)=O` [Example 34, 2-(2-carbamoylethylamino)-4-[4-(quinolin-3-yl)-9H-carbazol-9-yl]benzamide], the IC50 (Hsp82) is reported as less than 1000 nM and the IC50 [1] is reported as less than 1000 nM.

For `NCC(CO)Oc1cc(-n2c3ccccc3c3c(-c4nc5ccc(F)cc5[nH]4)cccc32)ccc1C(N)=O` (centres unmarked) [Example 53, 2-(2-amino-1-hydroxymethylethyloxy)-4-[4-(6-fluoro-1H-benzimidazol-2-yl)-9H-carbazol-9-yl]benzamide], the IC50 (Hsp82) was 1000 to 10000 nM and the IC50 [1] was 1000 to 10000 nM.

Work on `NC(=O)c1ccc(-n2c3ccccc3c3c(-c4ccc(N)nc4)cccc32)cc1N[C@H]1CC[C@H](O)CC1` [Example 20, 4-[4-(6-aminopyridin-3-yl)-9H-carbazol-9-yl]-2-[(4-trans-hydroxycyclohexyl)amino]benzamide] yielded an IC50 (Hsp82) of less than 1000 nM and an IC50 [1] of less than 1000 nM.

For `NC(=O)c1ccc(-n2c3ccccc3c3c(-c4cncc(OCc5ccccc5)c4)cccc32)cc1N[C@H]1CC[C@H](O)CC1` [Example 67, 4-{4-[5-(benzyloxy)pyridin-3-yl]-9H-carbazol-9-yl}-2-[(4-trans-hydroxycyclohexyl)amino]benzamide], the IC50 (Hsp82) was 1000 to 10000 nM and the IC50 [1] was 1000 to 10000 nM.

`CCOCCNc1cc(-n2c3ccccc3c3c(-c4nc5ccc(F)cc5[nH]4)cccc32)ccc1C(N)=O` [Example 46, 2-(2-ethoxyethylamino)-4-[4-(6-fluoro-1H-benzimidazol-2-yl)-9H-carbazol-9-yl]benzamide] gave an IC50 (Hsp82) of 1000 to 10000 nM and an IC50 [1] of less than 1000 nM.

`NC(=O)c1ccc(-n2c3ccccc3c3c(-c4nc5cc(F)ccc5[nH]4)cccc32)cc1N` [Example 10, 2-amino-4-[4-(6-fluoro-1H-benzimidazol-2-yl)-9H-carbazol-9-yl]benzamide] gave an IC50 (Hsp82) of less than 1000 nM and an IC50 [1] of 1000 to 10000 nM.

`NC(=O)c1ccc(-n2c3ccccc3c3c(-c4nc5ccc(F)cc5[nH]4)cccc32)cc1NCCF` [Example 62, 4-[4-(6-fluoro-1H-benzimidazol-2-yl)-9H-carbazol-9-yl]-2-(2-fluoroethylamino)benzamide] showed an IC50 (Hsp82) of less than 1000 nM and an IC50 [1] of less than 1000 nM.

In the case of `NC(=O)c1ccc(-n2c3ccccc3c3c(-c4nc5ccc(F)cc5[nH]4)cccc32)cc1NCCCO` [Example 8, 4-[4-(6-fluoro-1H-benzimidazol-2-yl)-9H-carbazol-9-yl]-2-(3-hydroxypropylamino)benzamide], the IC50 (Hsp82) is reported as less than 1000 nM and the IC50 [1] is reported as less than 1000 nM.

For `NC(=O)c1ccc(-n2c3ccccc3c3c(-c4nc5ccc(F)cc5[nH]4)cccc32)cc1NCc1c[nH]cn1` [Example 57, 4-[4-(6-fluoro-1H-benzimidazol-2-yl)-9H-carbazol-9-yl]-2-[(1H-imidazoly-4-yl)methylamino]benzamide], the IC50 (Hsp82) was 1000 to 10000 nM and the IC50 [1] was 1000 to 10000 nM.

Molecule `CC(CCO)Nc1cc(-n2c3ccccc3c3c(-c4nc5ccc(F)cc5[nH]4)cccc32)ccc1C(N)=O` (racemic) [Example 39] has an IC50 (Hsp82) of less than 1000 nM and an IC50 [1] of less than 1000 nM.

With `NC(=O)c1ccc(-n2c3ccccc3c3c(-c4nc5ccc(F)cc5[nH]4)cccc32)cc1N[C@H]1CC[C@@H](O)CC1` [Example 9, 4-[4-(6-fluoro-1H-benzimidazol-2-yl)-9H-carbazol-9-yl]-2-(4-cis-hydroxycyclohexylamino)benzamide] the IC50 (Hsp82) was 1000 to 10000 nM and the IC50 [1] was less than 1000 nM.

`NC(=O)c1ccc(-n2c3ccccc3c3c(-c4nc5ccc(F)cc5[nH]4)cccc32)cc1NC(CO)CO` [Example 52, 4-[4-(6-fluoro-1H-benzimidazol-2-yl)-9H-carbazol-9-yl]-2-(2-hydroxy-1-hydroxymethylethylamino)benzamide] was tested, and the IC50 (Hsp82) was less than 1000 nM and the IC50 [1] was less than 1000 nM.
